Measurements as given in patent US9670247B2, “Contraceptive agents” (The University of Kansas, priority 2012, dated 2017).

Molecular target: hERG (Homo sapiens, UniProt Q12809)
Settings: not given

hERG, sequence (Q12809 whole entry): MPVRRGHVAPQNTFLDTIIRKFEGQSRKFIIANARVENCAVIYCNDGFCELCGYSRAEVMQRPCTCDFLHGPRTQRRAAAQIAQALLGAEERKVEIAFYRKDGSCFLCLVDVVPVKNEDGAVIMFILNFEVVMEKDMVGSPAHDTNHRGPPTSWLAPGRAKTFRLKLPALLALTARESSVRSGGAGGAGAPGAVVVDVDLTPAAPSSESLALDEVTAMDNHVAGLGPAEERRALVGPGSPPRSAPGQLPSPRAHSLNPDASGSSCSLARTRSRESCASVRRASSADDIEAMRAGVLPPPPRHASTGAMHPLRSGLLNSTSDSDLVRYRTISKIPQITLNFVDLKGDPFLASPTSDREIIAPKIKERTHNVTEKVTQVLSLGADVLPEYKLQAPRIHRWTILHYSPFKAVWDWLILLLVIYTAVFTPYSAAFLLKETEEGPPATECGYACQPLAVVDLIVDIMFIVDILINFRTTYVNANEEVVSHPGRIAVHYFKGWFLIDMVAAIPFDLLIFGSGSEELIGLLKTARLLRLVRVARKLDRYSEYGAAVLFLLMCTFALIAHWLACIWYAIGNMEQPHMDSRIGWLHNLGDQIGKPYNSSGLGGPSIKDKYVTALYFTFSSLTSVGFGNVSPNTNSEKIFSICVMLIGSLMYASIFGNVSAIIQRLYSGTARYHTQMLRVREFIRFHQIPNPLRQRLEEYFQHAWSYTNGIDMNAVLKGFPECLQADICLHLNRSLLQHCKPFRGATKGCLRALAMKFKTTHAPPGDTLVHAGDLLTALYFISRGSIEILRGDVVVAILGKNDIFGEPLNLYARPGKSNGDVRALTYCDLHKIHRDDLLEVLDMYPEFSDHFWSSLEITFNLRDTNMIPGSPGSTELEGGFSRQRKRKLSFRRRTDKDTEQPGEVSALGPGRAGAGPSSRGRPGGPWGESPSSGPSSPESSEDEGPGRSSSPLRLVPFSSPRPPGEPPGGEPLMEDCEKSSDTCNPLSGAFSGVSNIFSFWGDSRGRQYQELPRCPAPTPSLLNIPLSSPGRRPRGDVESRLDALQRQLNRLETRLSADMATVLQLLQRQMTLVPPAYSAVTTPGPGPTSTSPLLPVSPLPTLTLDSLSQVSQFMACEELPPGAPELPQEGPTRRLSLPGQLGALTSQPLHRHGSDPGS

Compound | effect on hERG
C[C@@H]1O[C@@H](O[C@H]2C[C@@H](O)[C@]3(CO)[C@H]4[C@H](O)C[C@]5(C)[C@@H](C6=CC(=O)OC6)CC[C@]5(O)[C@@H]4CC[C@]3(O)C2)[C@H](O)[C@H](O)[C@H]1O [ouabain] | inhibited hERG activity

Tested on: Na,K-ATPase α4 isoform
Settings: higher than that of the ubiquitous α1 isoform; cited from earlier work

Compound | affinity for ouabain of α4 relative to the α1 isoform
C[C@@H]1O[C@@H](O[C@H]2C[C@@H](O)[C@]3(CO)[C@H]4[C@H](O)C[C@]5(C)[C@@H](C6=CC(=O)OC6)CC[C@]5(O)[C@@H]4CC[C@]3(O)C2)[C@H](O)[C@H](O)[C@H]1O [ouabain] | 10,000 fold

Tested on: not given
Settings: not given

Compound | melting point
COCO[C@@H]1[C@H]2OC(C)(C)O[C@H]2[C@H](O[C@H]2C[C@H]3OC(C)(C)OC[C@]34C3C(CC[C@]4(O)C2)[C@@]2(O)CC[C@H](C(O)CO)[C@@]2(C)C[C@H]3OCOC)O[C@H]1C (stereo partly drawn) [Compound 3, (3S,3aR,5R,5bR,9aR,11S,12aS,14bS)-3-(1,2-dihydroxyethyl)-5-(methoxymethoxy)-11-(((3aR,4R,6S,7S,7aR)-7-(methoxymethoxy)-2,2,6-trimethyltetrahydro-3aH-[1,3]dioxolo[4,5-c]pyran-4-yl)oxy)-3a,8,8-trimethylhexadecahydro-1H-cyclopenta[7,8]phenanthro[4,4a-d][1,3]dioxine-12a,14b-diol] | 119 to 121 °C
COCO[C@@H]1[C@H]2OC(C)(C)O[C@H]2[C@H](O[C@H]2C[C@H]3OC(C)(C)OC[C@]34C3C(CC[C@]4(O)C2)[C@@]2(O)CC[C@H](CO)[C@@]2(C)C[C@H]3OCOC)O[C@H]1C (stereo partly drawn) [Compound 10, (3S,3aR,5R,5bR,9aR,11S,12aS,14bS)-3-(hydroxymethyl)-5-(methoxymethoxy)-11-(((3aR,4R,6S,7S,7aR)-7-(methoxymethoxy)-2,2,6-trimethyltetrahydro-3aH-[1,3]dioxolo[4,5-c]pyran-4-yl)oxy)-3a,8,8-trimethylhexadecahydro-1H-cyclopenta[7,8]phenanthro[4,4a-d][1,3]dioxine-12a,14b-diol] | 126 to 129 °C
COCO[C@@H]1[C@H]2OC(C)(C)O[C@H]2[C@H](O[C@H]2C[C@H]3OC(C)(C)OC[C@]34C3C(CC[C@]4(O)C2)[C@@]2(O)CC[C@H](C#N)[C@@]2(C)C[C@H]3OCOC)O[C@H]1C (stereo partly drawn) [Compound 11, (3S,3aR,5R,5bR,9aR,11S,12aS,14bS)-12a,14b-dihydroxy-5-(methoxymethoxy)-11-(((3aR,4R,6S,7S,7aR)-7-(methoxymethoxy)-2,2,6-trimethyltetrahydro-3aH-[1,3]dioxolo[4,5-c]pyran-4-yl)oxy)-3a,8,8-trimethylhexadecahydro-1H-cyclopenta[7,8]phenanthro[4,4a-d][1,3]dioxine-3-carbonitrile] | 97 to 99 °C
CC(C)[C@H](N)C(=O)O[C@H]1CC[C@@]2(C)C(=CCC3C2CC[C@@]2(C)C3CC[C@@H]2c2cn(Cc3ccccc3)nn2)C1 (stereo partly shown) | 195 to 197 °C
C[C@]12CCC3C(CC=C4C[C@@H](O)CC[C@@]43C)[C@@H]1CC[C@@H]2C1=CC(=O)OC1 (stereo in doubt) | 286 to 287 °C
COCO[C@H]1C[C@H]2OC(C)(C)OC[C@]23C2C(CC[C@]3(O)C1)[C@@]1(OCOC)CC[C@H](C=O)[C@@]1(C)C[C@H]2OCOC (stereo partly shown) | 129 to 135 °C
COC(=O)Cn1cc([C@H]2CCC3C4CC=C5C[C@@H](O)CC[C@]5(C)C4CC[C@@]32C)nn1 (stereo partly shown) | 221 to 223 °C
COCO[C@H]1C[C@H]2OC(C)(C)OC[C@]23C2C(CC[C@]3(O)C1)[C@@]1(OCOC)CC[C@H](CO)[C@@]1(C)C[C@H]2OCOC (stereo partly drawn) [Compound 22, (3S,3aR,5R,5bR,9aR,11S,12aS,14bS)-3-(hydroxymethyl)-5,11,14b-tris(methoxymethoxy)-3a,8,8-trimethylhexadecahydro-1H-cyclopenta[7,8]phenanthro[4,4a-d][1,3]dioxin-12a-ol] | 154 to 158 °C
